Reference: patent US20160022689A1, “Triazine compound for resisting coccidiosis in chickens” (SHANGHAI VETERINARY RESEARCH INSTITUTE, CHINESE ACADEMY OF …, priority 2013, published 2016)
“And” between values parts separate entries of the source, which are not always exact repeats. Equal entries are not always repeated. Where two headings read alike, the source gives them in different places.

Legend:
[1] = test system: Eimeria tenella; test: AZL application in preventing the coccidiosis induced by Eimeria tenella (drug in feed, infected cockerels); assay type: in vivo; parameters: key to ACI (anticoccidial index): ACI = (rel. weight gain + survival) − (lesion score + oocyst value); key to Cecal lesion score: average Johnson-Reid lesion score in group ×10; conditions: for ACI (anticoccidial index): ACI=(relative weight gain rate+survival rate)-(cecal lesion score+oocyst value); for Cecal lesion score: average lesion score in group x10; for Survival rate %: cockerels infected with 80000 sporulated oocysts of Eimeria tenella; for Relative weight gain rate %: relative to healthy control group; for Oocyst value: score from OPG ratio to infection control
Description: Application of AZL in Preventing the Coccidiosis Induced by Eimeria tenella
One-day-old Pudong yellow feather cockerels
If needed, it is added into the chicken compound feed without other drugs and well mixed. Two AZL concentrations are set: 5 mg/kg and 10 mg/kg.
If needed, it is added into the compound feed without other drugs and well mixed. Two drug concentrations are set: 5 mg/kg and 10 mg/kg.
4) Raw diclazuril material: If needed, it is added into the compound feed without other drugs and well mixed, with the diclazuril concentration of 1 mg/kg.
After 90 one-day-old Pudong yellow feather cockerels were raised in the healthy animal room for 14 days. They were divided into 9 groups randomly, with 10 cockerels each group. One of these groups was the healthy control group. The AZL addition groups had two different treatments (5 mg/kg and 10 mg/kg). In the groups with the addition of compounds with structural formula (IV) and (V) respectively, two concentrations were set as AZL. The diclazuril addition group at the concentration of 1 mg/kg was taken as drug control group. Besides, an infection control group was also established.
After grouping, the seven drug addition groups were fed with the feed containing specified drugs, while infection and healthy control groups were fed using pure feed without drugs. Each group drank freely. At the age of 15 day old, each cockerel in all the groups was infected with 80000 sporulated oocysts of Eimeria tenella, except for the healthy control group.
During the experimental period, food and water intake, mental state, illness and bloody stool were observed and recorded every day. At 5, 6 and 7 d after infection, the excrement in each group was collected to count the number of oocysts. The highest value was used for ACI calculation. During the experimental period, chicken death status was observed every day and the dead ones were autopsied. On the 8th day, chickens in all the groups were weighted and killed to observe and record weight gain and cecal lesion status.
1.5.1 Death rate: The percentage of the number of dead chicken because of infection to total number of experimental chicken.
1.5.2 Relative weight gain rate: The percentage of average weight gain of chickens in each infection group to that in the healthy control group
1.5.3 Cecal lesion score: It is scored by referring to the method by Johnson and Reid (Johnson J, Reid W M. Anticoccidial drugs: lesion scoring techniques in battery and floor-pan experiments with chickens.
Experimental Parasitology, 1970, 28 (1): 30-36). Cecal lesion score=average lesion score in a group×10.
1.5.4 Oocyst value: Cecal contents from all the chickens in each group were well mixed. The number of oocysts per gram (OPG) was calculated via Mc-Master's method. Ratio of oocyst number=(OPG in the negative control group or drug addition group÷OPG in the positive control group)×100% If the ratio is 0-1%, oocyst value is 0; if the ratio is 2%-25%, oocyst value is 5; if the ratio is 26%-50%, oocyst value is 10; if the ratio is 51%-75%, oocyst value is 20; if the ratio is 76%-100%, oocyst value is 40.
1.5.5 Anticoccidial index: ACI=(relative weight gain rate+survival rate)−(cecal lesion score+oocyst value)

[2] = test system: rats; conditions: acute oral, improved Karber's method; cited from earlier work
[3] = Acute toxicity test (LD50) of AZL in rats, oral gavage; assay type: in vivo, rat; conditions: both sexes, Sprague Dawley, rat, in vivo, po, single oral gavage, improved Karber's method
Description: (§1) Acute Toxicity Test (LD50) of AZL in Rats
(§2) AZL (99.10%): made by Shanghai Veterinary Research Institute, CAAS
(§3) Drug solvent: 0.5% sodium carboxymethyl cellulose
(§4) Before administration, AZL was added into 0.5% sodium carboxymethyl cellulose to prepare suspensions at different concentrations.
(§5) 1.2 Experimental animals: Specific pathogen-free (SPF) Sprague Dawley rats (50% female vs 50% male) were purchased from Shanghai Super-B&K laboratory animal Co., Ltd. (license number: SCXK (Hu): 2008-0016). Male and female rats were raised separately in the cages for more than 4 days before the experiments.
(§6) Through repeated preliminary experiments, the interval of LD0-LD100 was determined According to this interval, groups were divided and the interval between groups was determined. Eighty rats (180-220 g) were selected and randomly divided into 8 groups. Each group had 10 rats, with the same number of female and male. Drug dosage in 7 groups were 2358, 3000, 3817, 4856, 6178, 7860, and 10000 mg/kg, respectively. The rats in these groups received oral gavage once. The remaining one group was chosen as negative control group which was drenched orally with drug solvent. After administration, this group was continuously observed for 14 days to calculate the death rate.

[4] = test system: Sprague Dawley rats; test: as above; assay type: in vivo, rat; conditions: oral gavage once, 14 days
Description: as §1, §2, §3, §4, §5, §6

[5] = drug concentration in feed 5 mg/kg
[6] = drug concentration in feed 10 mg/kg
[7] = drug concentration in feed 1 mg/kg

Row | Compound | ACI (anticoccidial index) [1, 5] | Cecal lesion score [1, 5] | Survival rate % [1, 5] [%] | Relative weight gain rate % [1, 5] [%] | Oocyst value [1, 5] | ACI (anticoccidial index) [1, 6] | Cecal lesion score [1, 6] | Survival rate % [1, 6] [%] | Relative weight gain rate % [1, 6] [%] | Oocyst value [1, 6] | other results
1 | Cc1cc(-n2ncc(=O)[nH]c2=O)ccc1Oc1ccc([N+](=O)[O-])cc1 [Compound with structural formula IV, 2-{3-methyl-4-(4′-nitrophenoxy)phenyl}-1,2,4-triazine-3,5(2H,4H)-diketone, reference compound] | 182.2 | 5 | 100 | 92.2 | 5 | 190.0 | 5 | 100 | 95.0 | 0 | 95% confidence limit of LD50 [2]: 644 to 916 mg/kg; median lethal dose (LD50) [2]: 768 mg/kg
2 | Cc1cc(-n2ncc(=O)[nH]c2=O)ccc1Oc1ccc(N)cc1 [Compound with structural formula V, 2-{3-methyl-4-(4′-aminophenoxy)phenyl}-1,2,4-triazine-3,5(2H,4H)^− diketone] | 151.5 | 15 | 100 | 81.5 | 15 | 158.1 | 10 | 100 | 83.1 | 15 | 
3 | CC(=O)Nc1ccc(Oc2ccc(-n3ncc(=O)[nH]c3=O)cc2C)cc1 [AZL, 2-{3-methyl-4-(4′-acetamidophenoxy)phenyl}-1,2,4-triazine-3,5(2H,4H)^− diketone] | 180.8 | 5 | 100 | 90.8 | 5 | 189 and 189.1 | 5 | 100 | 99.1 | 5 | ACI (anticoccidial index) ([1]; drug concentration in feed 10 mg/kg, listed as compound with structural formula (I)): 189; LD50 at 14 days ([3]; 14 days observation, read-out: LD50): 4740 mg/kg; LD50 at 14 days ([3]; read-out: 95% confidence limit of LD50): 3750 to 5990 mg/kg; Death rate % ([4]; dosage 2358 mg/kg): 0%; Death rate % ([4]; dosage 3000 mg/kg): 30%; Death rate % ([4]; dosage 3817 mg/kg): 50%; Death rate % ([4]; dosage 4856 mg/kg): 50%; Death rate % ([4]; dosage 6178 mg/kg): 70%; Death rate % ([4]; dosage 7860 mg/kg): 70%; Death rate % ([4]; dosage 10000 mg/kg): 90%
4 | N#CC(c1ccc(Cl)cc1)c1c(Cl)cc(-n2ncc(=O)[nH]c2=O)cc1Cl (centres unmarked) [Diclazuril, diclazuril, reference compound] |  |  |  |  |  |  |  |  |  |  | ACI (anticoccidial index) [1, 7]: 182.1; Cecal lesion score [1, 7]: 5; Survival rate % [1, 7]: 100%; Relative weight gain rate % [1, 7]: 92.1%; Oocyst value [1, 7]: 5
